Type in all cases: physicochemical
The nature of series [1]: Suspension competitive agitation test between anhydrous crystalline forms I, III, XV, XVII and XVIII (IPA, MTBE; solid tested by XRPD). As to conditions: solid by XRPD after suspension stirring 3 days.
Series [2] can be described thus: Evaluation of hygroscopicity by Dynamic Moisture Sorption Analyzer (DVS), with XRPD before and after DVS. As to conditions: for hygroscopicity (in words) / moisture adsorption: 80% RH/25° C.; for moisture adsorption: humidity cycle 0% RH-95% RH-0% RH; for crystalline form after the DVS test (XRPD): XRPD of the sample after the DVS test.
Series [3] can be described thus: Stability test (1): physical and chemical stability by XRPD and HPLC at 80° C., 40° C./75% RH and 25° C./60% RH. As to conditions: for chemical stability: degradation (HPLC purity) / physical stability: crystalline form (XRPD): 80° C. (sealed) 24 hours, 40° C./75% RH and 25° C./60% RH (open) 1 week; for purity (area %): HPLC. The protocol: (sealed) for 24 hours, at 40° C./75% RH and 25° C./60% RH (open) for 1 week, respectively. The physical and chemical stability of the samples were tested by XRPD and HPLC.

A short description of series [4]: Suspension competitive test between Crystalline Form III and Crystalline Form XVIII (EtOAc, MTBE, n-butyl alcohol; solid tested by XRPD). As to conditions: for interconversion rate of crystalline form III and crystalline form XVIII: suspension stirring 7 days; for Crystalline Form: solid by XRPD after suspension stirring 7 days.
Series [5] can be described thus: Stability test (2): salt crystalline forms at high temperature, high humidity and light, detection by HPLC and XRPD. The note with it: for total impurities (%): HPLC.
Where [6] appears, read: 60° C. (open), 5 days, listed as XL.
Setting [7] is: 60° C. (open), 10 days, listed as XL.
The mark [8] stands for this setting: 60° C. (open), 30 days, listed as XL.
Setting [9] is: light (RT, white light 6980 lux, UV 282 μW/cm2), 5 days, listed as XL.
Setting [10] is: light (RT, white light 6980 lux, UV 282 μW/cm2), 10 days, listed as XL.

As for `O=C(NS(=O)(=O)c1ccc(NC[C@H]2COCCO2)c([N+](=O)[O-])c1)c1ccc(N2CCN(CC3=C(c4ccc(Cl)cc4)CC4(CCC4)CC3)CC2)cc1Oc1cnc2[nH]ccc2c1` [listing 1 of 2 here], the “Crystalline Form” value in series [1] (IPA, 50° C.) is reported as “Crystalline Form III”; in series [1] (IPA, 70° C.) it was “Crystalline Form III”; in series [1] (IPA, room temperature) it was “Crystalline Form III”; in series [1] (MTBE, 50° C.), “Crystalline Form III”; in series [1] (MTBE, 70° C.) it was “Crystalline Form III”; in series [1] (MTBE, room temperature) it was “Crystalline Form III”.

With `O=C(NS(=O)(=O)c1ccc(NCC2COCCO2)c([N+](=O)[O-])c1)c1ccc(N2CCN(CC3=C(c4ccc(Cl)cc4)CC4(CCC4)CC3)CC2)cc1Oc1cnc2[nH]ccc2c1` (single isomer, unassigned) [crystalline form XVIII], the “hygroscopicity (in words)” value in series [2] (DVS) was “almost no moisture absorption”. Further, the moisture adsorption in series [2] (DVS) amounted to 0.04%. Besides, in series [2], the “crystalline form after the DVS test (XRPD)” value is reported as “did not change”. Also, the “chemical stability: degradation (HPLC purity)” value (from here on “chemical stability: degradation”) in series [3] is reported as “did not degrade”. The “physical stability: crystalline form (XRPD)” value (“physical stability” below) in series [3] is “did not change”. For the same compound, the “purity (area %)” value in series [3] (25° C./60% RH 1 week (open)) came to 99.60 area %; in series [3] (40° C./75% RH 1 week (open)), 99.61 area %; in series [3] (80° C. 24 hours (sealed)), 99.61 area %; in series [3] (starting point) it was 99.48 area %. The “stability of crystalline form III and crystalline form XVIII relative to each other” value in series [4] (room temperature) is listed as “similar”. The “interconversion rate of crystalline form III and crystalline form XVIII” value in series [4] (room temperature) is listed as “relatively slow”.

As for `O=C(NS(=O)(=O)c1ccc(NCC2COCCO2)c([N+](=O)[O-])c1)c1ccc(N2CCN(CC3=C(c4ccc(Cl)cc4)CC4(CCC4)CC3)CC2)cc1Oc1cnc2[nH]ccc2c1` (single isomer, unassigned) [crystalline form III], in series [2] (DVS), the “hygroscopicity (in words)” value is listed as “slight hygroscopicity” and the moisture adsorption amounted to 0.9%. Further, in series [2], the “crystalline form after the DVS test (XRPD)” value was “did not change”. In addition, in series [3], the “chemical stability: degradation” value was “did not degrade” and the “physical stability” value was “did not change”. Also, in series [3] (25° C./60% RH 1 week (open)), the “purity (area %)” value was 98.66 area %. For the same compound, the “purity (area %)” value in series [3] (40° C./75% RH 1 week (open)) is on record as 98.67 area %. Besides, the “purity (area %)” value in series [3] (80° C. 24 hours (sealed)) was 98.64 area %. Moreover, in series [3] (starting point), the “purity (area %)” value stood at 98.65 area %. For the same compound, in series [4] (room temperature), the “stability of crystalline form III and crystalline form XVIII relative to each other” value was “similar”; the “interconversion rate of crystalline form III and crystalline form XVIII” value was “relatively slow”.

Turning to `O=C(NS(=O)(=O)c1ccc(NCC2COCCO2)c([N+](=O)[O-])c1)c1ccc(N2CCN(CC3=C(c4ccc(Cl)cc4)CC4(CCC4)CC3)CC2)cc1Oc1cnc2[nH]ccc2c1` (centres unmarked) [amorphous form XXV], in series [3], the “chemical stability: degradation” value is “did not degrade”. In addition, the “physical stability” value in series [3] is “did not change”. The “purity (area %)” value in series [3] (25° C./60% RH 1 week (open)) was found to be 99.42 area %; in series [3] (40° C./75% RH 1 week (open)), 99.45 area %; in series [3] (80° C. 24 hours (sealed)) it was 99.42 area %; in series [3] (starting point), 99.43 area %.

Consider `O=C(NS(=O)(=O)c1ccc(NC[C@H]2COCCO2)c([N+](=O)[O-])c1)c1ccc(N2CCN(CC3=C(c4ccc(Cl)cc4)CC4(CCC4)CC3)CC2)cc1Oc1cnc2[nH]ccc2c1` [listing 2 of 2 here], for which the “Crystalline Form” value in series [4] (EtOAc, 50° C.) is recorded as “Crystalline Form III”; in series [4] (EtOAc, 70° C.) it was “Crystalline Form III”; in series [4] (EtOAc, room temperature) it was “Crystalline Form V”; in series [4] (MTBE, 50° C.), “Crystalline Form III”; in series [4] (MTBE, 70° C.), “Crystalline Form III”; in series [4] (n-Butyl alcohol, 50° C.), “Crystalline Form III”. Further, the “Crystalline Form” value in series [4] (n-Butyl alcohol, 70° C.) is given as “Crystalline Form III”.

Take `O=C(NS(=O)(=O)c1ccc(NCC2COCCO2)c([N+](=O)[O-])c1)c1ccc(N2CCN(CC3=C(c4ccc(Cl)cc4)CC4(CCC4)CC3)CC2)cc1Oc1cnc2[nH]ccc2c1` (centres unmarked) [maleate crystalline Form XL]: in series [2] (DVS, 80% RH, listed as XL), the “weight increase by hygroscopy (80% RH)” value is 1.41%. Also, the XRPD change entry in series [2] (XRPD before and after DVS) was “no change”. In addition, the XPRD entry in series [5] (setting [6]) is “No change”; in series [5] (setting [7]) it was “No change”; in series [5] (setting [8]) it was “No change”; in series [5] (RT/75% RH (open), 5 days), “No change”; in series [5] (RT/75% RH (open), 10 days), “No change”; in series [5] (setting [9]), “No change”. Further, in series [5] (setting [10]), the XPRD entry is listed as “No change”. In addition, the “total impurities (%)” value in series [5] (setting [6]) is recorded as 1.15%; in series [5] (setting [7]) it was 1.18%; in series [5] (setting [8]) it was 1.28%; in series [5] (RT/75% RH (open), 5 days, listed as XL) it was 0.93%; in series [5] (RT/75% RH (open), 10 days, listed as XL), 1.06%; in series [5] (RT/75% RH (open), 30 days, listed as XL), 0.90%. The “total impurities (%)” value in series [5] (setting [9]) is 1.08%; in series [5] (setting [10]) it was 1.18%; in series [5] (the initial sample, 0 day, listed as XL) it was 0.91%.

Source of the values: patent publication US12358912B2 (ASCENTAGE PHARMA (SUZHOU) CO., LTD., priority 2020, dated 2025).
